Measurements reported in the supplement of paper PMC10627819.

Experiments:
S. aureus Newman [1] = experiment: fitness (endpoint OD595 vs no drug) (fraction); higher = more growth
Summary of the method: (§1)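 Each well of a 384-well plate received 30 µl of culture at OD595 0.01, or 55 µl for S. pneumoniae. TSB, LB Lennox or CY served as media at 37 °C. OD595 was taken every 30 min for 14 h and corrected by subtracting the first reading. Fitness is the optical density at stationary-phase entry divided by the robust mean of no-drug controls, capped at 1.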

S. pneumoniae D39V [2] = experiment: as above
Summary of the method: as §1

B. subtilis 168 = experiment: Bliss interaction score (quartile over a dose matrix) (fitness difference); higher = more antagonism (negative = synergy)
Summary of the method: (§2)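 Each OD595 reading at entry into stationary phase was scaled to the robust mean of the untreated wells on its plate, with a ceiling of 1. These ratios define fitness, and single-drug fitness was inferred from combinations. The Bliss score compares observed fitness with the product-based expectation and is reported as quartiles across all replicate types, technical, biological and donor/recipient.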

S. aureus DSM 20231 = experiment: as above
Summary of the method: as §2

S. aureus Newman [3] = experiment: as above
Summary of the method: as §2

S. pneumoniae D39V [4] = experiment: as above
Summary of the method: as §2
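Wherever Bliss interaction score (quartile over a dose matrix) is given: first quartile when negative (synergy) and third quartile when positive (antagonism).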

C/C(=C\C(=O)OCCCCCCCCC(=O)O)C[C@@H]1OC[C@H](C[C@@H]2O[C@H]2[C@@H](C)[C@H](C)O)[C@@H](O)[C@H]1O [Pseudomonic acid] + CC1=C\[C@@H](O)CC(=O)Cc2nc(co2)C(=O)N2CCC=C2C(=O)O[C@H](C(C)C)[C@H](C)/C=C/C(=O)NC\C=C\1 [Virginiamycin M1]
fitness, one replicate
Settings	first compound 0.03 µg/mL	first compound 0.0313 µg/mL	first compound 0.06 µg/mL	first compound 0.0625 µg/mL	first compound 0.12 µg/mL	first compound 0.125 µg/mL
S. aureus Newman [1], partner 0.0625 µg/mL	–	0.0328	–	0.0216	–	0.0353
S. aureus Newman [1], partner 0.125 µg/mL	–	0.0308	–	0.0347	–	0.0594
S. aureus Newman [1], partner 0.25 µg/mL	–	0.0405	–	0.0352	–	0.0492
S. pneumoniae D39V [2], partner 0.15 µg/mL	≥ 1	–	≥ 1	–	0.866	–
S. pneumoniae D39V [2], partner 0.3 µg/mL	≥ 1	–	≥ 1	–	0.865	–

fitness, S. pneumoniae D39V [2]
Settings	first compound 0.03 µg/mL	first compound 0.06 µg/mL	first compound 0.12 µg/mL
partner 0.5 µg/mL	0.924	0.856	0.629
partner 1 µg/mL	0.914	0.798	0.63
partner 2 µg/mL	0.952	0.844	0.647

Settings	Bliss interaction score
B. subtilis 168	-0.0497
S. aureus DSM 20231	-0.0077
S. aureus Newman [3]	-0.0218
S. pneumoniae D39V [4]	0.106

C/C(=C\C(=O)OCCCCCCCCC(=O)O)C[C@@H]1OC[C@H](C[C@@H]2O[C@H]2[C@@H](C)[C@H](C)O)[C@@H](O)[C@H]1O [Pseudomonic acid] + CCCCCCCCCC(=O)N[C@@H]1[C@H]([C@@H]([C@H](O[C@H]1OC2=C3C=C4C=C2OC5=C(C=C(C=C5)[C@H]([C@H]6C(=O)N[C@@H](C7=C(C(=CC(=C7)O)OC8[C@H]([C@H]([C@@H]([C@H](O8)CO)O)O)O)C9=C(C=CC(=C9)[C@H](C(=O)N6)NC(=O)[C@@H]4NC(=O)[C@@H]1C2=CC(=CC(=C2)OC2=C(C=CC(=C2)[C@H](C(=O)N[C@H](CC2=CC(=C(O3)C=C2)Cl)C(=O)N1)N)O)O)O)C(=O)O)O[C@H]1[C@@H]([C@H]([C@@H]([C@H](O1)CO)O)O)NC(=O)C)Cl)CO)O)O [Teicoplanin]
fitness, S. aureus Newman [1], one replicate, main component drawn
Settings	first compound 0.0313 µg/mL	first compound 0.0625 µg/mL	first compound 0.125 µg/mL
partner 0.1562 µg/mL	0.0547	0.0391	0.0327
partner 0.3125 µg/mL	0.0341	0.0111	0.005
partner 0.625 µg/mL	0.0079	0.0049	0.0139

main component drawn
Settings	Bliss interaction score
B. subtilis 168	0.116
S. aureus DSM 20231	-0.0304
S. aureus Newman [3]	-0.0375
S. pneumoniae D39V [4]	0.0843

C/C(=C\C(=O)OCCCCCCCCC(=O)O)C[C@@H]1OC[C@H](C[C@@H]2O[C@H]2[C@@H](C)[C@H](C)O)[C@@H](O)[C@H]1O [Pseudomonic acid] + CN1C2=CC=CC=C2N=C3C1=CC=CC3=O [Pyocyanin]
fitness, S. aureus Newman [1], one replicate
Settings	first compound 0.0313 µg/mL	first compound 0.0625 µg/mL	first compound 0.125 µg/mL
partner 1.25 µg/mL	0.0664	0.0399	0.0453
partner 2.5 µg/mL	0.0672	0.0381	0.0514
partner 5 µg/mL	0.0481	0.0417	0.057

fitness, S. pneumoniae D39V [2]
Settings	first compound 0.03 µg/mL	first compound 0.06 µg/mL	first compound 0.12 µg/mL
partner 0.325 µg/mL	0.955	0.849	0.611
partner 0.65 µg/mL	0.932	0.843	0.554
partner 1.3 µg/mL	–	0.55	0.395

Settings	Bliss interaction score
B. subtilis 168	-0.0558
S. aureus DSM 20231	0.0163
S. aureus Newman [3]	0.0185
S. pneumoniae D39V [4]	-0.0764

CCCCCCCCCC(=O)N[C@H]1[C@H](Oc2c3cc4cc2Oc2ccc(cc2Cl)[C@@H](O[C@@H]2O[C@H](CO)[C@@H](O)[C@H](O)[C@H]2NC(C)=O)[C@@H]2NC(=O)[C@H](NC(=O)[C@@H]4NC(=O)[C@H]4NC(=O)[C@@H](Cc5ccc(c(Cl)c5)O3)NC(=O)[C@H](N)c3ccc(O)c(c3)Oc3cc(O)cc4c3)c3ccc(O)c(c3)-c3c(O[C@H]4O[C@H](CO)[C@@H](O)[C@H](O)[C@@H]4O)cc(O)cc3[C@@H](C(=O)O)NC2=O)O[C@H](CO)[C@@H](O)[C@@H]1O [Teicoplanin] + CN(C)c1cc(NC(=O)CNC(C)(C)C)c(O)c2c1C[C@H]1C[C@H]3[C@H](N(C)C)C(O)=C(C(N)=O)C(=O)[C@@]3(O)C(O)=C1C2=O [Tigecycline]
fitness, S. aureus Newman [1], main component drawn
Settings	first compound 0.1562 µg/mL	first compound 0.3125 µg/mL	first compound 0.625 µg/mL
partner 0.039 µg/mL	≥ 1	0.98	≥ 1
partner 0.078 µg/mL	≥ 1	0.963	≥ 1
partner 0.156 µg/mL	≥ 1	≥ 1	≥ 1

fitness, S. aureus Newman [1], one replicate, main component drawn
Settings	first compound 0.62 µg/mL	first compound 1.24 µg/mL	first compound 2.48 µg/mL
partner 0.039 µg/mL	0.757	0.736	0.456
partner 0.078 µg/mL	0.754	0.746	0.453
partner 0.156 µg/mL	0.813	0.756	0.427

main component drawn
Settings	Bliss interaction score
B. subtilis 168	0.123
S. aureus DSM 20231	0.108
S. aureus Newman [3]	0.0513
S. pneumoniae D39V [4]	0.0619
